Measured values reported in patent US20110171666A1, “PEPTIDE-LIPID CONSTRUCTS AND THEIR USE IN DIAGNOSTIC AND THERAPEUTIC APPLICATIONS” (priority 2007, published 2011).
Groups on a side chain read outwards from the residue. Primed or numbered codes have the meaning given here. No end group written: not given here. *: point of attachment. DOPE = CCCCCCCC/C=C\CCCCCCCC(=O)OC[C@H](COP(=O)(O)OCCN*)OC(=O)CCCCCCC/C=C\CCCCCCCC; S1 PEG = not defined here; PEG6′ = not defined here; Mal = not defined here; Mal″ = maleimide; βAla = NCCC(=O)O

Legend:
[1] = system: Miltenberger Antibody Positive Panel (polyclonal sera and monoclonal antibodies); assay: Reactivity of construct-modified RBCs against the Miltenberger Antibody Positive Panel; type: cell-based, human; design: key: 0 or ‘−’=no agglutination; 0 or ‘−’=no agglutination; 1+ or 3=very weak agglutination; 1+ or 3=very weak agglutination; 2+ or 5=weak agglutination; 2+ or 5=weak agglutination; 3+ or 8=moderate strong agglutination; 3+ or 8=moderate strong agglutination; 4+ or 10/12=strong agglutination; 4+ or 10/12=strong agglutination; 4+ or 10/12=strong agglutination
Description: Red blood cells are modified by mixing 1 part by volume of washed packed red blood cells with 1 part by volume of peptide-lipid construct dispersed at a concentration of 10 to 1000 μg/ml in cell media (Celpresol™).
(§1) The suspensions are either: • 1. incubated for 2 hours at 37° C. before being washed and suspended in a cell medium for serological analysis at a concentration of 0.8 to 3% (Method 1); or • 2. incubated for 3 to 4 hours at room temperature (circa 25° C.) followed by 18 hours at 4° C. before being washed and suspended in a cell medium for serological analysis at a concentration of 0.8 to 3% (Method 2).
(§2) Serological reactions are graded or scored by either of two established systems (0 or ‘−’=no agglutination, 1+ or 3=very weak agglutination, 2+ or 5=weak agglutination, 3+ or 8=moderate strong agglutination, 4+ or 10/12=strong agglutination)
(§3) Serological platforms used are Tube (addition of reagents and reactants into plastic or glass serology tubes and after appropriate incubations, washing and centrifugation observing reactions macroscopically by eye and a 10× magnification eyepiece and scoring) and BioVue™ (addition of reactants into cassettes containing beads (including some reactants) and after appropriate incubations and centrifugation observing the reaction patterns traped within the Gel matrix). BioVue is the serological column agglutination platform of Ortho-Clinical Diagnostics.

[2] = system: sera reactive with modified RBCs; assay: Neutralisation of reactive sera with peptide and retest against modified RBCs (BioVue cards); type: cell-based, human; design: key: 0 or ‘−’=no agglutination; 0 or ‘−’=no agglutination; 1+ or 3=very weak agglutination; 1+ or 3=very weak agglutination; 2+ or 5=weak agglutination; 2+ or 5=weak agglutination; 3+ or 8=moderate strong agglutination; 3+ or 8=moderate strong agglutination; 4+ or 10/12=strong agglutination; 4+ or 10/12=strong agglutination; 4+ or 10/12=strong agglutination; conditions: for reactivity score, serum + peptide: RBCs modified at 500 μg/ml (Method 1)
Description: as §1, §2, §3
Where false positives were observed these could be substantially eliminated by pre-treatment of the sample of serum with the peptide of the peptide-lipid constructs (Table 10 and 11).

[3] = MUT constructs, μg/ml used: M1 500, M2 500, M3 1000, M13 250, M21 200
[4] = MUR constructs, RBCs modified at 100 ug/ml

Row | Substance | reactivity score of modified RBCs vs 2 T217 [1, 3] | reactivity score of modified RBCs vs 3 T165 [1, 3] | reactivity score of modified RBCs vs 4 T7202 [1, 3] | reactivity score of modified RBCs vs 6 T6025 [1, 3] | reactivity score of modified RBCs vs 7 T8445 [1, 3] | reactivity score of modified RBCs vs 8 T5896 [1, 3] | reactivity score of modified RBCs vs 9 MIII monoclonal antibody [1, 3] | reactivity score of modified RBCs vs 10 Mia monoclonal antibody [1, 3] | reactivity score of modified RBCs vs 11 Mur monoclonal antibody [1, 3] | reactivity score of modified RBCs vs 12 Gam monoclonal antibody [1, 3] | reactivity score of modified RBCs vs 2 T217 [1, 4] | reactivity score of modified RBCs vs 3 T165 [1, 4] | reactivity score of modified RBCs vs 4 T7202 [1, 4] | reactivity score of modified RBCs vs 6 T6025 [1, 4] | reactivity score of modified RBCs vs 7 T8445 [1, 4] | reactivity score of modified RBCs vs 8 T5896 [1, 4] | reactivity score of modified RBCs vs 9 MIII monoclonal antibody [1, 4] | reactivity score of modified RBCs vs 10 Mia monoclonal antibody [1, 4] | reactivity score of modified RBCs vs 11 Mur monoclonal antibody [1, 4] | reactivity score of modified RBCs vs 12 Gam monoclonal antibody [1, 4] | further results
1 | DOPE-PEG6-βAla-Mal-21MUTK (SQTNDKHKRDC([Mal″-βAla-PEG6′-DOPE])) [M21] | 0 | 8 | 0 | 8 | 0 | 0 | 0 | 0 | 0 | 3 | – | – | – | – | – | – | – | – | – | – | reactivity score of modified RBCs vs 15 TAP2 [1, 3]: 5
2 | DOPE-PEG6-βAla-Mal-13MUTK (SSQTNDKHKRDTYC([Mal-βAla-PEG6′-DOPE]); reading uncertain; also: printed as DOPE-PEG6-βAla-Mal-13MUTK) [M13] | 8 | 0 | 8 | 8 | 0 | 3 | 0 | 0 | 0 | 0 | – | – | – | – | – | – | – | – | – | – | reactivity score, serum alone ([2]; serum #3, RBCs modified at 500 μg/ml (Method 1)): 8; reactivity score, serum + peptide ([2]; serum #3 neutralised with peptide SSQTNDKHKRDTY): 0; reactivity score, serum alone ([2]; serum #34, RBCs modified at 500 μg/ml (Method 1)): 8; reactivity score, serum + peptide ([2]; serum #34 neutralised with peptide SSQTNDKHKRDTY): 0; reactivity score, serum alone ([2]; serum #37, RBCs modified at 500 μg/ml (Method 1)): 8; reactivity score, serum + peptide ([2]; serum #37 neutralised with peptide SSQTNDKHKRDTY): 0; reactivity score, serum alone ([2]; serum #42, RBCs modified at 500 μg/ml (Method 1)): 8; reactivity score, serum + peptide ([2]; serum #42 neutralised with peptide SSQTNDKHKRDTY): 0; reactivity score of modified RBCs vs 13 BoxH [1, 3]: 8
3 | M16: DOPE peptide-lipid construct, Mur peptide ThrTyrProAlaHisThrAlaAsnGluVal with terminal Cys, S1 PEG (Table 7) (TYPAHTANEVC([S1 PEG-DOPE]); reading uncertain) | – | – | – | – | – | – | – | – | – | – | 0 | 10 | 5 | 5 | 12 | 0 | 0 | 0 | 0 | 0 | reactivity score of modified RBCs vs 13 BoxH [1, 4]: 0
4 | DOPE-PEG6-βAla-Mal-18Mur (PAHTANEVC([Mal″-βAla-PEG6′-DOPE])) [M18] | – | – | – | – | – | – | – | – | – | – | 0 | 10 | 0 | 10 | 8 | 0 | 0 | 0 | 0 | 0 | –
